According to US20260157967A1, “METHOD FOR PREPARING MEDICINES, HAVING REDUCED PRODUCTION TIME AND IMPROVED STABILITY” (DR.INB CO., priority 2021, published 2026):

Tested on: cancer cells (PANC-1)
Test: CCK8 assay of the efficiency of killing cancer cells, with or without laser irradiation (FIG. 4)
Assay type: cell-based
Conditions: PANC-1, FIG. 4a, docetaxel treatment at various concentrations
Experimental: 1 g of polyvinylpyrrolidone (PVP, Sigma-Aldrich) was dissolved in 20 g of ultrapure water and stirred in a mixing chamber at 1500 RPM for 30 minutes to obtain an aqueous PVP solution. Subsequently, 131.7 mg of potassium hexacyanoferrate (III) trihydrate (K3Fe(CN)6·3H2O, Sigma-Aldrich) was dissolved in 20 g of ultrapure water and mixed with the aqueous PVP solution. Then, 400 μl of 1 M HCl (Sigma-Aldrich) was added to the mixing chamber and vortexed at 60 J/s. After movement through an injection pipe, the solution thus prepared was subjected to a step of allowing gas to flow at a high speed on the inner boundary of a reaction chamber and in a liquid cutting tube at an applied voltage of 30 kV, a distance of 25 cm between the reaction chamber and the end of the injection pipe, and a temperature of 140° C. As indicated by the green arrows in FIG. 1, the gas is moved toward the upper portion of the reaction chamber through a structure in which the boundary of the reaction chamber and the liquid cutting tube are at 0.29 rad and the gap of the boundary is 900 nm. As the gas passed, the prepared solution was cut into small pieces. The cut liquid received heat in the reaction chamber and the temperature thereof rose quickly compared to bulk liquid having the same total volume (40 ml) due to heat transfer within the liquid (FIG. 3). […]

CC(=O)O[C@@]12CO[C@@H]1C[C@H](O)[C@@]1(C)C(=O)[C@H](O)C3=C(C)[C@@H](OC(=O)[C@H](O)[C@@H](NC(=O)OC(C)(C)C)c4ccccc4)C[C@@](O)([C@@H](OC(=O)c4ccccc4)[C@H]21)C3(C)C [docetaxel]
efficiency of killing cancer cells: increased the efficiency of killing cancer cells with an increase in the treatment concentration
